Test results from patent US20240217978A1 (CHONG KUN DANG PHARMACEUTICAL CORP., priority 2021, published 2024).

Each molecule was assayed against human adenosine A2a receptor (Homo sapiens (Human), UniProt P29274) (assay: A2a receptor binding affinity, [3H]-NECA radioligand binding test). Settings: [3H]-NECA 37 nM; membrane from HEK-293 cells transfected with human adenosine A2a receptor.
Outline: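 IC50 values (μM) come from displacement of [3H]-NECA, used at 37 nM final, on human A2a receptor membranes from transfected HEK-293 cells. Incubation lasted one hour at room temperature in Tris/MgCl2/EDTA buffer, pH 7.4; filter-bound radioactivity was counted by scintillation.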

human adenosine A2a receptor, sequence (P29274 whole entry): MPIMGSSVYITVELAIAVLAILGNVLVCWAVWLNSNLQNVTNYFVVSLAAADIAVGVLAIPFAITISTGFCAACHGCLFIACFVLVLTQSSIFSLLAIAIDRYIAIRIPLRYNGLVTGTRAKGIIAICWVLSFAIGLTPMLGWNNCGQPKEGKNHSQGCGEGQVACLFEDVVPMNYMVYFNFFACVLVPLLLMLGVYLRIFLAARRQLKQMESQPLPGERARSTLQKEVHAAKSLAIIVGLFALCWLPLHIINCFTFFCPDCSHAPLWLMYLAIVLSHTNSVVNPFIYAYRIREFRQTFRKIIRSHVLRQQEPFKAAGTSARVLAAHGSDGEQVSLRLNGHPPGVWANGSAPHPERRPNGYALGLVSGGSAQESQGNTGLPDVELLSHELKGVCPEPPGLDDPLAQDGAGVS

| SMILES | IC50 [nM] |
| --- | --- |
| Nc1nc(N2CCC[C@H]2C(=O)N2CCCN(CC(F)(F)F)CC2)nc2nc(-c3ccco3)nn12 [Example 278, (S)-(1-(7-amino-2-(furan-2-yl)-[1,2,4]triazolo[1,5-a][1,3,5]triazin-5-yl)pyrrolidin-2-yl)(4-(2,2,2-trifluoroethyl)-1,4-diazepan-1-yl)methanone] | 20 |
| Nc1nc(N2CCCC[C@H]2C(=O)N2CCN(CC(F)(F)C(F)F)CC2)nc2nc(-c3ccco3)nn12 [Example 279, (S)-(1-(7-amino-2-(furan-2-yl)-[1,2,4]triazolo[1,5-a][1,3,5]triazin-5-yl)piperidin-2-y1)(4-(2,2,3,3-tetrafluoropropyl)piperazin-1-yl)methanone] | 14 |
| Nc1nc(N2CCCC[C@H]2C(=O)N2CCN(CC(F)(F)C(F)(F)F)CC2)nc2nc(-c3ccco3)nn12 [Example 280, (S)-(1-(7-amino-2-(furan-2-yl)-[1,2,4]triazolo[1,5-a][1,3,5]triazin-5-yl)piperidin-2-yl)(4-(2,2,3,3,3-pentafluoropropyl)piperazin-1-yl)methanone] | 9 |
| Nc1nc(N2CCC[C@H]2C(=O)N2CCN(CCC(F)(F)F)CC2)nc2nc(-c3ccco3)nn12 [Example 281, (S)-(1-(7-amino-2-(furan-2-yl)-[1,2,4]triazolo[1,5-a][1,3,5]triazin-5-yl)pyrrolidin-2-yl)(4-(3,3,3-trifluoropropyl)piperazin-1-yl) methanone] | 9 |
| Nc1nc(N2CCC[C@H]2C(=O)N2CCN(CC3(C(F)(F)F)CC3)CC2)nc2nc(-c3ccco3)nn12 [Example 283, (S)-(1-(7-amino-2-(furan-2-yl)-[1,2,4]triazolo[1,5-a][1,3,5]triazin-5-yl)pyrrolidin-2-yl)(4-((1-(trifluoromethyl)cyclopropyl)methyl)piperazin-1-yl)methanone] | 12 |
| Nc1nc(N2CCC[C@H]2C(=O)N2CCN(CC3(C(F)(F)F)CCCCC3)CC2)nc2nc(-c3ccco3)nn12 [Example 285] | 0.2 |
| Nc1nc(N2CCC[C@H]2C(=O)N2CCN(CC3(C(F)(F)F)CCCCC3)CC2)nc2nc(-c3ccco3)nn12 [Example 286] | 2 |
| Nc1nc(N2CCC[C@H]2C(=O)N2CCC(C3CCN(CC(F)(F)C(F)F)CC3)CC2)nc2nc(-c3ccco3)nn12 [Example 289, (S)-(1-(7-amino-2-(furan-2-yl)-[1,2,4]triazolo[1,5-a][1,3,5]triazin-5-yl)pyrrolidin-2-yl)(1′-(2,2,3,3-tetrafluoropropyl)-[4,4′-bipiperidin]-1-yl)methanone] | 9 |
| CC(C)(O)CC(=O)N1CCN(C(=O)[C@@H]2CCCN2c2cc3nc(-c4ccco4)nn3c(N)n2)CC1 [Example 292, 1-(4-((5-amino-2-(furan-2-yl)-[1,2,4]triazolo[1,5-c]pyrimidin-7-yl)-L-prolyl)piperazin-1-yl)-3-hydroxy-3-methylbutan-1-one] | 21 |
| Cc1ccc(-c2nc3nc(N4CCC[C@H]4C(=O)N4CCN(CC(F)F)CC4)nc(N)n3n2)o1 [Example 297, (S)-(1-(7-amino-2-(5-methylfuran-2-yl)-[1,2,4]triazolo[1,5-a][1,3,5]triazin-5-yl)pyrrolidin-2-yl)(4-(2,2-difluoroethyl)piperazin-1-yl)methanone] | 15 |
| Cc1ccc(-c2nc3nc(N4CCC[C@H]4C(=O)N4CCN(CC(F)(F)C(F)(F)F)CC4)nc(N)n3n2)o1 [Example 299, (S)-(1-(7-amino-2-(5-methylfuran-2-yl)-[1,2,4]triazolo[1,5-a][1,3,5]triazin-5-yl)pyrrolidin-2-yl)(4-(2,2,3,3,3-pentafluoropropyl)piperazin-1-yl)methanone] | 9 |
| Cc1ccc(-c2nc3nc(N4CCC[C@H]4C(=O)N4CCN(CCCC(F)(F)F)CC4)nc(N)n3n2)o1 [Example 300, (S)-(1-(7-amino-2-(5-methylfuran-2-yl)-[1,2,4]triazolo[1,5-a][1,3,5]triazin-5-yl)pyrrolidin-2-yl)(4-(4,4,4-trifluorobutyl)piperazin-1-yl)methanone] | 9 |
| COC[C@H](Nc1nc(N)n2nc(-c3ccco3)nc2n1)C(=O)N1CCN(c2ncccn2)CC1 [Example 304, (S)-2-((7-amino-2-(furan-2-yl)-[1,2,4]triazolo[1,5-a][1,3,5]triazin-5-yl)amino)-3-methoxy-1-(4-(pyrimidin-2-yl)piperazin-1-yl)propan-1-one] | 11 |
| COC[C@H](Nc1nc(N)n2nc(-c3ccco3)nc2n1)C(=O)N1CCN(c2nccs2)CC1 [Example 305, (S)-2-((7-amino-2-(furan-2-yl)-[1,2,4]triazolo[1,5-a][1,3,5]triazin-5-yl)amino)-3-methoxy-1-(4-(thiazol-2-yl)piperazin-1-yl)propan-1-one] | 16 |

Further molecules by falling IC50, results first:

| IC50 [nM] | SMILES |
| --- | --- |
| 6 | CC(C)(CN1CCN(C(=O)[C@@H]2CCCN2c2nc(N)n3nc(-c4ccco4)nc3n2)CC1)C(F)(F)F [Example 282, (S)-(1-(7-amino-2-(furan-2-yl)-[1,2,4]triazolo[1,5-a][1,3,5]triazin-5-yl)pyrrolidin-2-yl)(4-(3,3,3-trifluoro-2,2-dimethylpropyl)piperazin-1-yl)methanone] |
| 6 | CC(C)(O)CN1CCN(C(=O)[C@@H]2CCCN2c2nc(N)n3nc(-c4ccco4)nc3n2)CC1 [Example 302, (S)-(1-(7-amino-2-(furan-2-yl)-[1,2,4]triazolo[1,5-a][1,3,5]triazin-5-yl)pyrrolidin-2-yl)(4-(2-hydroxy-2-methylpropyl)piperazin-1-yl)methanone] |
| 6 | COC[C@H](Nc1nc(N)n2nc(-c3ccco3)nc2n1)C(=O)N1CCN(CC(C)(C)F)CC1 [Example 303, (S)-2-((7-amino-2-(furan-2-yl)-[1,2,4]triazolo[1,5-a][1,3,5]triazin-5-yl)amino)-1-(4-(2-fluoro-2-methylpropyl)piperazin-1-yl)-3-methoxypropan-1-one] |
| 5 | Nc1nc(N2CCC[C@H]2C(=O)N2CCN(CC3(C(F)(F)F)CCC3)CC2)nc2nc(-c3ccco3)nn12 [Example 284, (S)-(1-(7-amino-2-(furan-2-yl)-[1,2,4]triazolo[1,5-a][1,3,5]triazin-5-yl)pyrrolidin-2-yl)(4-((1-(trifluoromethyl)cyclobutyl)methyl)piperazin-1-yl)methanone] |
| 5 | Nc1nc(N2CCC[C@H]2C(=O)N2CCC(C3CCN(CCCC(F)(F)F)CC3)CC2)nc2nc(-c3ccco3)nn12 [Example 291, (S)-(1-(7-amino-2-(furan-2-yl)-[1,2,4]triazolo[1,5-a][1,3,5]triazin-5-yl)pyrrolidin-2-yl)(1′-(4,4,4-trifluorobutyl)-[4,4′-bipiperidin]-1-yl)methanone] |
| 4 | CC(F)(F)CN1CCN(C(=O)[C@@H]2CCCN2c2cc3nc(-c4ccco4)nn3c(N)n2)CC1 [Example 294, (S)-(1-(5-amino-2-(furan-2-yl)-[1,2,4]triazolo[1,5-c]pyrimidin-7-yl)pyrrolidin-2-yl)(4-(2,2-difluoropropyl)piperazin-1-yl)methanone] |
| 3 | Nc1nc(N2CCC[C@H]2C(=O)N2CCC(C3CCN(CC(F)F)CC3)CC2)nc2nc(-c3ccco3)nn12 [Example 287, (S)-(1-(7-amino-2-(furan-2-yl)-[1,2,4]triazolo[1,5-a][1,3,5]triazin-5-yl)pyrrolidin-2-yl)(1′-(2,2-difluoroethyl)-[4,4′-bipiperidin]-1-yl)methanone] |
| 3 | CC(F)(F)CN1CCC(C2CCN(C(=O)[C@@H]3CCCN3c3nc(N)n4nc(-c5ccco5)nc4n3)CC2)CC1 [Example 288, (S)-(1-(7-amino-2-(furan-2-yl)-[1,2,4]triazolo[1,5-a][1,3,5]triazin-5-yl)pyrrolidin-2-yl)(1′-(2,2-difluoropropyl)-[4,4′-bipiperidin]-1-yl)methanone] |
| 3 | Nc1nc(N2CCC[C@H]2C(=O)N2CCN(CC(F)F)CC2)cc2nc(-c3ccco3)nn12 [Example 293, (S)-(1-(5-amino-2-(furan-2-yl)-[1,2,4]triazolo[1,5-c]pyrimidin-7-yl)pyrrolidin-2-yl)(4-(2,2-difluoroethyl)piperazin-1-yl)methanone] |
| 3 | Cc1ccc(-c2nc3nc(N4CCC[C@H]4C(=O)N4CCN(CC(F)(F)C(F)F)CC4)nc(N)n3n2)o1 [Example 298, (S)-(1-(7-amino-2-(5-methylfuran-2-yl)-[1,2,4]triazolo[1,5-a][1,3,5]triazin-5-yl)pyrrolidin-2-yl)(4-(2,2,3,3-tetrafluoropropyl)piperazin-1-yl) methanone] |
| 3 | CCCCCCN1CCN(C(=O)[C@@H]2CCCN2c2nc(N)n3nc(-c4ccco4)nc3n2)CC1 [Example 301, (S)-(1-(7-amino-2-(furan-2-yl)-[1,2,4]triazolo[1,5-a][1,3,5]triazin-5-yl)pyrrolidin-2-yl)(4-hexylpiperazin-1-yl)methanone] |
| 2 | CC(C)(O)CC(=O)N1CCC(C2CCN(C(=O)[C@@H]3CCCN3c3nc(N)n4nc(-c5ccco5)nc4n3)CC2)CC1 [Example 290, 1-(1′-((7-amino-2-(furan-2-yl)-[1,2,4]triazolo[1,5-a][1,3,5]triazin-5-yl)-L-prolyl)-[4,4′-bipiperidin]-1-yl)-3-hydroxy-3-methylbutan-1-one] |
| 1 | CCC(F)(F)CN1CCN(C(=O)[C@@H]2CCCN2c2cc3nc(-c4ccco4)nn3c(N)n2)CC1 [Example 295, (S)-(1-(5-amino-2-(furan-2-yl)-[1,2,4]triazolo[1,5-c]pyrimidin-7-yl)pyrrolidin-2-yl)(4-(2,2-difluorobutyl)piperazin-1-yl)methanone] |
| 0.8 | Nc1nc(N2CCC[C@H]2C(=O)N2CCN(CC(F)(F)C(F)(F)F)CC2)cc2nc(-c3ccco3)nn12 [Example 296, (S)-(1-(5-amino-2-(furan-2-yl)-[1,2,4]triazolo[1,5-c]pyrimidin-7-yl)pyrrolidin-2-yl)(4-(2,2,3,3,3-pentafluoropropyl)piperazin-1-yl)methanone] |
